Legend:
[1] = molecular target: T1, human Factor Xa (Homo sapiens, UniProt P00742); assay: Factor Xa assay (chromogenic, Ki); format: biochemical; settings: 3.3 nM Xa, S-2222 0.5 mM; read-out: binding affinity to serine proteases: Xa
T1 construct: This complex converts factor X to Xa
Protocol: Factor Xa, Thrombin, and Plasma Kallikrein Assays
These procedures are used to determine the constant of inhibition (Ki) for a sample compound of the invention.
Procedure • 1. Add 50 μL sample to each well. • 2. Add 50 μL appropriately diluted coagulation factor to each well. • 3. Incubate for 5 minutes at room temperature with gentle agitation. • 4. Add 50 μL appropriately diluted substrate to each well. • 5. Agitate plate for 20-25 sec. • 6. Monitor absorbance at 405 nm every 10 sec for a total of 5 minutes at room temperature. • 7. Calculate Vmax over 10 points.

[2] = molecular target: tissue factor/factor VIIa (Homo sapiens, UniProt P08709); assay: Tissue Factor/Factor VIIa antagonist assay (chromogenic, Ki); format: biochemical; settings: 10 nM VIIa, 30 nM TF, Chromozym-tPA 1.33 mM; read-out: binding affinity to serine proteases: VIIa
Sequence of tissue factor/factor VIIa (P08709 213-466 limits assumed): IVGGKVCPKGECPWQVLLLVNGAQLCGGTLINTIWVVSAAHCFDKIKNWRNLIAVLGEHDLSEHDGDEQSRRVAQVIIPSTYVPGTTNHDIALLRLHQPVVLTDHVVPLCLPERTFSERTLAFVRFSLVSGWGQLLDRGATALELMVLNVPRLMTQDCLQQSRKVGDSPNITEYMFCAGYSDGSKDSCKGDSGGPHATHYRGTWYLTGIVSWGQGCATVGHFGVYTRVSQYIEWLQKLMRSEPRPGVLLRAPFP
Sequence of tissue factor/factor VIIa (P08709 61-212 limits assumed): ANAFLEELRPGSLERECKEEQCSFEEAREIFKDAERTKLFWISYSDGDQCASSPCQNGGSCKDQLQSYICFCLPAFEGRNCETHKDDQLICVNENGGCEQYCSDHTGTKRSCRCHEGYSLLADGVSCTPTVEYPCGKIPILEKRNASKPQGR
Sequence of tissue factor/factor VIIa (P13726 33-251 partner limits assumed): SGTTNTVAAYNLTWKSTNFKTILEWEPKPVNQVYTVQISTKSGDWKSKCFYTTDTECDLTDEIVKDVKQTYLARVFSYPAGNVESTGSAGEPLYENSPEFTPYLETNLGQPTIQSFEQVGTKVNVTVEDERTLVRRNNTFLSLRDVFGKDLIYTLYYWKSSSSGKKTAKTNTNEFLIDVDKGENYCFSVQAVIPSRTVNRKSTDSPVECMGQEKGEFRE
Protocol: Tissue Factor/Factor VIIa Antagonist Assay
This procedure is used to determine the constant of inhibition (Ki) for a sample compound of the invention.
Procedure • 1. Prepare a solution of 2 μg/mL (90 nM) tissue factor and 1.5 μg/mL (30 nM) factor VIIa in assay buffer with CaCl2. • 2. Incubate for 15 minutes at room temperature. • 3. Add 50 μL sample to each well. • 4. Add 50 μL tissue factor/factor VIIa solution to each well. • 5. Incubate for 15 minutes at room temperature with gentle agitation. • 6. Add 50 μL substrate to each well. • 7. Agitate plate for 20-25 sec. • 8. Monitor absorbance at 405 nm every 10 see for a total of 5 minutes at room temperature. • 9. Calculate Vmax over 10 points.

T1 sequence (P00742 235-488 limits assumed): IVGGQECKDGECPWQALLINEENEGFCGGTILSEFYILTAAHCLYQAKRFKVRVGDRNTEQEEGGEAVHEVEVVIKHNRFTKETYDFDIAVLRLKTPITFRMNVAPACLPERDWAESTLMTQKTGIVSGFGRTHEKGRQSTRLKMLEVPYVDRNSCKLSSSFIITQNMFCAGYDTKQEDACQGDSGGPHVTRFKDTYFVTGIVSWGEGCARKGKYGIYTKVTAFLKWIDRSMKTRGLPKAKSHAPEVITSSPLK
T1 sequence (P00742 41-179 limits assumed): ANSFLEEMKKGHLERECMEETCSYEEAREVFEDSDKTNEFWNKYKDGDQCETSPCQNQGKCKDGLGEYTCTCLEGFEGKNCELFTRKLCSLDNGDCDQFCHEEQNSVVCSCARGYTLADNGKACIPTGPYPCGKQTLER

| Structure (SMILES) | Ki [1] [µM] | Ki [2] [µM] |
| --- | --- | --- |
| N=C(N)c1ccc(NC(=O)[C@@H]2C[C@@H](Oc3cccc(C(=N)N)c3)CN2)cc1 [compound 2] | 1.15 | 64 |
| COc1ccc(CNC(=O)[C@@H]2C[C@@H](Oc3cccc(C(=N)N)c3)CN2)cc1 [compound 8] | 3.32 | ≥ 390 |
| Cc1ccc(CNC(=O)[C@@H]2C[C@@H](Oc3cccc(C(=N)N)c3)CN2)cc1 [compound 9] | 5.13 | ≥ 390 |
| N=C(N)c1cccc(O[C@H]2CN[C@H](C(=O)N3CCc4ccccc4C3)C2)c1 [compound 10] | 5.35 | 98.5 |
| N=C(N)c1cccc(O[C@H]2CN[C@H](C(=O)NCCC3CNc4ccccc43)C2)c1 (some centres unmarked) [compound 12] | 6.02 | 156 |
| Cc1cccc(CNC(=O)[C@@H]2C[C@@H](Oc3cccc(C(=N)N)c3)CN2)c1 [compound 13] | 6.12 | ≥ 390 |
| CN1CCN(C(=O)[C@@H]2C[C@@H](Oc3cccc(C(=N)N)c3)CN2)CC1 [compound 18] | 8.87 | 273 |
| N=C(N)c1cccc(O[C@H]2CN[C@H](C(=O)NCc3cccc(Cl)c3)C2)c1 [compound 19] | 9 | 312 |
| N=C(N)c1cccc(O[C@H]2CN[C@H](C(=O)NCc3ccc4ccccc4c3)C2)c1 [compound 20] | 9.07 | 234 |
| COc1ccc(CNC(=O)[C@@H]2C[C@@H](Oc3cccc(C(=N)N)c3)CN2C(C)=O)cc1 [compound 23] | 12 | > 195 |
| N=C(N)c1cccc(O[C@H]2CN[C@H](C(=O)Nc3ccc(C(F)(F)F)cc3)C2)c1 [compound 24] | 12.9 | 312 |
| N=C(N)c1cccc(O[C@H]2CN[C@H](C(=O)NC3CCc4ccccc43)C2)c1 (some centres unmarked) [compound 25] | 13.3 | 156 |
| C[C@@H](NC(=O)[C@@H]1C[C@@H](Oc2cccc(C(=N)N)c2)CN1)c1ccccc1 [compound 26] | – | 142 |
| N=C(N)c1cccc(O[C@H]2CN[C@H](C(=O)Nc3ccc(-c4ccccc4)cc3)C2)c1 [compound 28] | 14.1 | ≥ 390 |
| N=C(N)c1cccc(O[C@H]2CN[C@H](C(=O)Nc3ccc4ccccc4c3)C2)c1 [compound 29] | 14.2 | 117 |
| N=C(N)c1cccc(O[C@H]2CN[C@H](C(=O)NCc3ccc(N)cc3)C2)c1 [compound 30] | 15.2 | 312 |
| C=CCNC(=O)[C@@H]1C[C@@H](Oc2cccc(C(=N)N)c2)CN1 [compound 31] | 15.2 | ≥ 390 |
| N=C(N)c1cccc(O[C@H]2CN[C@H](C(=O)Nc3cccc4ccccc34)C2)c1 [compound 33] | 15.5 | 30.5 |
| N#Cc1ccc(NC(=O)[C@@H]2C[C@@H](Oc3cccc(C(=N)N)c3)CN2)cc1 [compound 34] | 16.8 | 156 |
| N=C(N)c1cccc(O[C@H]2CN[C@H](C(=O)N3CCCCC3)C2)c1 [compound 35] | 19.7 | 94 |
| N=C(N)c1cccc(O[C@H]2CN[C@H](C(=O)NCc3ccccc3)C2)c1 [compound 37] | 21.7 | 312 |
| N=C(N)c1cccc(O[C@H]2CN[C@H](C(=O)N3CCCC3)C2)c1 [compound 38] | 21.7 | 129 |
| Cc1ccccc1CNC(=O)[C@@H]1C[C@@H](Oc2cccc(C(=N)N)c2)CN1 [compound 39] | 22.8 | ≥ 390 |
| CN(C(=O)[C@@H]1C[C@@H](Oc2cccc(C(=N)N)c2)CN1)c1ccccc1 [compound 40] | 23 | 156 |
| N=C(N)c1cccc(O[C@H]2CN[C@H](C(=O)NCCc3ccccc3)C2)c1 [compound 41] | 24.3 | 187 |

| Structure (SMILES) | Ki [1] [µM] | Ki [2] [µM] |
| --- | --- | --- |
| N#Cc1ccccc1NC(=O)[C@@H]1C[C@@H](Oc2cccc(C(=N)N)c2)CN1 [compound 42] | 24.4 | 89 |
| N=C(N)c1cccc(O[C@H]2CN[C@H](C(=O)Nc3ccccc3C(F)(F)F)C2)c1 [compound 43] | 24.5 | 156 |
| Cc1ccccc1NC(=O)[C@@H]1C[C@@H](Oc2cccc(C(=N)N)c2)CN1 [compound 44] | 25.9 | 117 |
| N=C(N)c1cccc(O[C@H]2CN[C@H](C(=O)Nc3cccc(C(F)(F)F)c3)C2)c1 [compound 45] | 26.3 | 150 |
| C[C@H](NC(=O)[C@@H]1C[C@@H](Oc2cccc(C(=N)N)c2)CN1)c1ccccc1 [compound 46] | 27 | 156 |
| N=C(N)c1cccc(O[C@H]2CN[C@H](C(=O)NCc3ccccn3)C2)c1 [compound 47] | 31.4 | ≥ 390 |
| COc1ccc(CNC(=O)[C@@H]2C[C@@H](Oc3cccc(C(=N)N)c3)CN2S(C)(=O)=O)cc1 [compound 48] | 33.6 | > 195 |
| CCCNC(=O)[C@@H]1C[C@@H](Oc2cccc(C(=N)N)c2)CN1 [compound 49] | 33.8 | ≥ 390 |
| COc1ccc(CNC(=O)[C@@H]2C[C@@H](Oc3cccc(C(=N)N)c3)CN2S(=O)(=O)c2ccccc2)cc1 [compound 50] | 34.1 | > 195 |
| N=C(N)c1cccc(O[C@H]2CN[C@H](C(=O)NC3CCCCC3)C2)c1 [compound 51] | – | 234 |
| N=C(N)c1cccc(O[C@H]2CN[C@H](C(=O)NCCc3ccccc3)C2)c1 [compound 53] | 37.1 | 133 |
| CC(C)CCNC(=O)[C@@H]1C[C@@H](Oc2cccc(C(=N)N)c2)CN1 [compound 54] | 38 | ≥ 390 |
| N=C(N)c1cccc(O[C@H]2CN[C@H](C(=O)N[C@@H](Cc3ccccc3)C(=O)O)C2)c1 [compound 55] | 44.9 | 273 |
| COc1ccc(CNC(=O)[C@@H]2C[C@@H](Oc3cccc(C(=N)N)c3)CN2C(=O)c2ccccc2)cc1 [compound 56] | 47.3 | > 195 |
| N=C(N)c1cccc(O[C@H]2CN[C@H](C(=O)N3CCC(O)CC3)C2)c1 [compound 57] | 49.3 | 312 |
| N=C(N)c1cccc(O[C@H]2CN[C@H](C(=O)NCc3cccnc3)C2)c1 [compound 58] | 50.7 | ≥ 390 |
| CC(C)NC(=O)[C@@H]1C[C@@H](Oc2cccc(C(=N)N)c2)CN1 [compound 59] | 59.8 | ≥ 390 |
| N=C(N)c1cccc(O[C@H]2CN[C@H](C(=O)N3CCCC(C(N)=O)C3)C2)c1 (some centres unmarked) [compound 61] | 62 | – |
| N=C(N)c1cccc(O[C@H]2CN[C@H](C(=O)N3CCCCC3CCO)C2)c1 (some centres unmarked) [compound 62] | 64.6 | > 390 |
| N=C(N)c1cccc(O[C@H]2CN[C@H](C(=O)N3CCNCC3)C2)c1 [compound 63] | 70 | ≥ 390 |
| COc1ccc(NC(=O)[C@@H]2C[C@@H](Oc3cccc(C(=N)N)c3)CN2)cc1 [compound 64] | 70.1 | 273 |
| N=C(N)c1cccc(O[C@H]2CN[C@H](C(=O)Nc3ccc(F)cc3)C2)c1 [compound 65] | 70.1 | 30.7 |
| N=C(N)c1cccc(O[C@H]2CN[C@H](C(N)=O)C2)c1 [compound 66] | 70.1 | 78 |
| N=C(N)c1cccc(O[C@H]2CN[C@H](C(=O)NCC(=O)O)C2)c1 [compound 77] | – | > 390 |
| C=CCOC(=O)[C@@H]1C[C@@H](Oc2cccc(C(=N)N)c2)CN1S(C)(=O)=O [compound 78] | – | > 195 |

Source: patent US6838479B2, “Amidine inhibitors of serine proteases” (Genentech, Inc., priority 2000, dated 2005)
